We go through 14 molecules from ChEMBL document CHEMBL1153217, “Antitubercular potential of some semisynthetic analogues of phytol” (Bioorg Med Chem Lett, 2010).

The subject of data set [1] is Mycobacterium tuberculosis. The experiment in a line: Antitubercular activity against Mycobacterium tuberculosis H37Rv at 500 ug/ml by BACTEC460 radiometric susceptibility assay. The data set is classed as functional, organism-based.
For data set [2], the system named is Mycobacterium tuberculosis. The data set can be described thus: Antitubercular activity against Mycobacterium tuberculosis H37Rv by BACTEC460 radiometric susceptibility assay. The class given is functional.
For data set [3], the system named is Mus musculus. The data set can be described thus: Toxicity in Swiss albino mouse assessed as total haemoglobin level 50 mg/kg, po (reference value: 7.54 +/- 1.05 g/dl). More on the design: dose 50 mg/kg, route oral. The data set is classed as organism-based. The conditions noted are these: in vivo.
In data set [4] the test system is Mus musculus. The experiment in a line: Toxicity in Swiss albino mouse assessed as total WBC level 300 mg/kg, po (reference value: 10.71 +/- 2.47 thousand/mm'3). The data set is classed as organism-based. More on the design: dose 300 mg/kg, route oral. The note with it: in vivo.
Data set [5] relates to Mus musculus. The experiment in a line: Toxicity in Swiss albino mouse assessed as total serum creatinine level 300 mg/kg, po (reference value: 0.71 +/- 0.14 mg/dl). The data set is classed as organism-based. The conditions noted are these: in vivo. Also noted: dose 300 mg/kg, route oral.
Data set [6] has as its system Mus musculus. The data set can be described thus: Toxicity in Swiss albino mouse assessed as total WBC level 50 mg/kg, po (reference value: 10.71 +/- 2.47 thousand/mm'3). The conditions noted are these: in vivo. Also noted: dose 50 mg/kg, route oral. The class given is organism-based.
Data set [7] concerns Mus musculus. The experiment in a line: Toxicity in Swiss albino mouse assessed as total SGPT level 5 mg/kg, po (reference value: 8.13 +/- 0.79 U/L). The class given is organism-based. More on the design: dose 5 mg/kg, route oral. The note with it: in vivo.
Data set [8] deals with Mus musculus. The data set can be described thus: Toxicity in Swiss albino mouse assessed as total SGPT level 50 mg/kg, po (reference value: 8.13 +/- 0.79 U/L). The data set is classed as organism-based. More on the design: dose 50 mg/kg, route oral. The note with it: in vivo.
For data set [9], the system named is Mus musculus. The experiment in a line: Toxicity in Swiss albino mouse assessed as total serum creatinine level 50 mg/kg, po (reference value: 0.71 +/- 0.14 mg/dl). More on the design: dose 50 mg/kg, route oral. The class given is organism-based. The note with it: in vivo.
The subject of data set [10] is Mus musculus. The data set can be described thus: Toxicity in Swiss albino mouse assessed as total serum triglyceride level 5 mg/kg, po (reference value: 72.43 +/- 8.40 mg/dl). More on the design: dose 5 mg/kg, route oral. The class given is organism-based. The conditions noted are these: in vivo.
The subject of data set [11] is Mus musculus. The data set can be described thus: Toxicity in Swiss albino mouse assessed as total WBC level 5 mg/kg, po (reference value: 10.71 +/- 2.47 thousand/mm'3). The class given is organism-based. Also noted: dose 5 mg/kg, route oral. The note with it: in vivo.
Data set [12] deals with Mus musculus. The data set can be described thus: Toxicity in Swiss albino mouse assessed as total haemoglobin level 300 mg/kg, po (reference value: 7.54 +/- 1.05 g/dl). The class given is organism-based. More on the design: dose 300 mg/kg, route oral. The conditions noted are these: in vivo.
The subject of data set [13] is Mus musculus. The data set can be described thus: Toxicity in Swiss albino mouse assessed as total RBC count 50 mg/kg, po (reference value: 6.24 +/- 0.51 millions/mm'3). The class given is organism-based. Also noted: dose 50 mg/kg, route oral. The conditions noted are these: in vivo.
For data set [14], the system named is Mus musculus. The data set can be described thus: Toxicity in Swiss albino mouse assessed as total SGOT level 5 mg/kg, po (reference value: 8.13 +/- 0.79 U/L). The class given is organism-based. Also noted: dose 5 mg/kg, route oral. The note with it: in vivo.
Data set [15] concerns Mus musculus. The experiment in a line: Toxicity in Swiss albino mouse assessed as body weight at 50 mg/kg, po (reference value: 23.56+/-1.547 g). Also noted: dose 50 mg/kg, route oral. The class given is organism-based. The conditions noted are these: in vivo.
For data set [16], the system named is Mus musculus. The data set can be described thus: Toxicity in Swiss albino mouse assessed as body weight at 300 mg/kg, po (reference value: 23.56+/-1.547 g). The note with it: in vivo. Also noted: dose 300 mg/kg, route oral. The class given is organism-based.
Data set [17] relates to Mus musculus. The data set can be described thus: Toxicity in Swiss albino mouse assessed as body weight at 5 mg/kg, po (reference value: 23.56+/-1.547 g). The class given is organism-based. More on the design: dose 5 mg/kg, route oral. The conditions noted are these: in vivo.
For data set [18], the system named is Mus musculus. The experiment in a line: Toxicity in Swiss albino mouse assessed as total RBC count 300 mg/kg, po (reference value: 6.24 +/- 0.51 millions/mm'3). The class given is organism-based. Also noted: dose 300 mg/kg, route oral. The conditions noted are these: in vivo.
Data set [19] has as its system Mus musculus. The data set can be described thus: Toxicity in Swiss albino mouse assessed as total SGOT level 300 mg/kg, po (reference value: 8.13 +/- 0.79 U/L). The class given is organism-based. More on the design: dose 300 mg/kg, route oral. The note with it: in vivo.
The test system of data set [20] is Mus musculus. The experiment in a line: Toxicity in Swiss albino mouse assessed as total SGOT level 50 mg/kg, po (reference value: 8.13 +/- 0.79 U/L). The data set is classed as organism-based. Also noted: dose 50 mg/kg, route oral. The note with it: in vivo.
Data set [21] concerns Mus musculus. The experiment in a line: Toxicity in Swiss albino mouse assessed as total SGPT level 300 mg/kg, po (reference value: 8.13 +/- 0.79U/L). The class given is organism-based. Also noted: dose 300 mg/kg, route oral. The note with it: in vivo.
Data set [22] has as its system Mus musculus. The data set can be described thus: Toxicity in Swiss albino mouse assessed as total RBC count 5 mg/kg, po (reference value: 6.24 +/- 0.51 millions/mm'3). The data set is classed as organism-based. More on the design: dose 5 mg/kg, route oral. The note with it: in vivo.
Data set [23] has as its system Mus musculus. The experiment in a line: Toxicity in Swiss albino mouse assessed as total serum total cholesterol level 300 mg/kg, po (reference value: 43.25 +/- 4.04 mg/dl). The data set is classed as organism-based. Also noted: dose 300 mg/kg, route oral. The note with it: in vivo.
Data set [24] has as its system Mus musculus. The experiment in a line: Toxicity in Swiss albino mouse assessed as total serum triglyceride level 50 mg/kg, po (reference value: 72.43 +/- 8.40 mg/dl). The class given is organism-based. More on the design: dose 50 mg/kg, route oral. The note with it: in vivo.
The subject of data set [25] is Mus musculus. The experiment in a line: Toxicity in Swiss albino mouse assessed as total haemoglobin level 5 mg/kg, po (reference value: 7.54 +/- 1.05 g/dl). The class given is organism-based. Also noted: dose 5 mg/kg, route oral. The note with it: in vivo.
In data set [26] the test system is Mus musculus. The data set can be described thus: Toxicity in Swiss albino mouse assessed as total serum total cholesterol level 5 mg/kg, po (reference value: 43.25 +/- 4.04 mg/dl). The note with it: in vivo. The data set is classed as organism-based. Also noted: dose 5 mg/kg, route oral.
Data set [27] relates to Mus musculus. The experiment in a line: Toxicity in Swiss albino mouse assessed as total serum triglyceride level 300 mg/kg, po (reference value: 72.43 +/- 8.40 mg/dl). The class given is organism-based. Also noted: dose 300 mg/kg, route oral. The note with it: in vivo.
Data set [28] deals with Mus musculus. The experiment in a line: Toxicity in Swiss albino mouse assessed as total serum creatinine level 5 mg/kg, po (reference value: 0.71 +/- 0.14 mg/dl). The class given is organism-based. Also noted: dose 5 mg/kg, route oral. The conditions noted are these: in vivo.
The subject of data set [29] is Mus musculus. The data set can be described thus: Toxicity in Swiss albino mouse assessed as total serum total cholesterol level 50 mg/kg, po (reference value: 43.25 +/- 4.04 mg/dl). The data set is classed as organism-based. Also noted: dose 50 mg/kg, route oral. The note with it: in vivo.

Converted amounts (≈) assume the structure as drawn. The source made the active and inactive calls.

Broadly, the MIC is the smallest concentration in the dilution series that meets the test's criterion for growth inhibition. As to `COc1cc(/C=C/C(O)=C/C(=O)/C=C/c2ccc(OC/C=C(\C)CCCC(C)CCCC(C)CCCC(C)C)cc2)ccc1OC/C=C(\C)CCCC(C)CCCC(C)CCCC(C)C` (stereo unspecified), the MIC result in data set [1] was “inactive”.

The molecule `C/C(=C\C=O)CCCC(C)CCCC(C)CCCC(C)C` (stereo unspecified) returned a minimal inhibitory concentration (MIC) in data set [2] of 50 µg/mL (≈ 170 µM).

Regarding `CC(=O)OC/C=C(\C)CCCC(C)CCCC(C)CCCC(C)C` (stereo unspecified), in [1], the MIC result is “inactive”.

The molecule `C/C(=C\C=N\O)CCCC(C)CCCC(C)CCCC(C)C` (stereo unspecified) gave an MIC in [2] of 25 µg/mL (≈ 80.8 µM).

In [2], `CO[C@H]1/C=C/O[C@@]2(C)Oc3c(C)c(O)c4c(O)c(c(/C=N/N5CCN(C)CC5)c(O)c4c3C2=O)NC(=O)/C(C)=C\C=C\[C@H](C)[C@H](O)[C@@H](C)[C@@H](O)[C@@H](C)[C@H](OC(C)=O)[C@@H]1C` [RIFAMPIN] had a minimal inhibitory concentration (MIC) of 2 µg/mL (≈ 2.43 µM).

In turn, `C/C(=C\COC=O)CCCC(C)CCCC(C)CCCC(C)C` (stereo unspecified) displayed an MIC in data set [2] of 500 µg/mL (≈ 1540 µM).

Molecule `C/C(=C\CO)CCCC(C)CCCC(C)CCCC(C)C` (stereo unspecified) yielded an MIC in data set [2] of 100 µg/mL (≈ 337 µM).

With `CC(C)CCCC(C)CCCC(C)CCCC1(C)OC1CO` (stereo unspecified), the MIC result in data set [1] is “inactive”.

On to `CCOC(=O)/C=C/CO/N=C/C=C(\C)CCCC(C)CCCC(C)CCCC(C)C` (stereo unspecified), for which the Activity was 10.09 g/dL with Mus musculus [3]; 14240 /mm3 in the data set with Mus musculus [4]; 1.2 mg/dL with Mus musculus [5]; 13460 /mm3 in the data set on Mus musculus [6]; 11.15 U/L with Mus musculus [7]; 10.06 U/L with Mus musculus [8]. Also, the Activity with Mus musculus [9] was 0.59 mg/dL; in the data set on Mus musculus [10], 84.31 mg/dL; in the data set with Mus musculus [11], 14450 /mm3; in the data set with Mus musculus [12], 5.55 g/dL; in the data set with Mus musculus [13], 6580000 /mm3; in the data set on Mus musculus [14], 28.03 U/L. The Activity in the data set with Mus musculus [15] is recorded as 25.39 g; with Mus musculus [16] it was 20.56 g; with Mus musculus [17] it was 25.41 g; in the data set on Mus musculus [18], 5140000 /mm3; in the data set on Mus musculus [19], 41.73 U/L; in the data set with Mus musculus [20], 35.44 U/L. Also, the Activity in the data set with Mus musculus [21] was 11.36 U/L; in the data set on Mus musculus [22], 5980000 /mm3; in the data set with Mus musculus [23], 62.27 mg/dL; with Mus musculus [24], 71.9 mg/dL; in the data set on Mus musculus [25] it was 6.41 g/dL; in the data set with Mus musculus [26] it was 57.67 mg/dL. Further, the results for the Activity in the data set with Mus musculus [27], with Mus musculus [28] and in the data set on Mus musculus [29] were 68.95 mg/dL, 0.61 mg/dL and 54.91 mg/dL, respectively. Further, the MIC in data set [2] worked out at 15.6 µg/mL (≈ 37 µM).

With `C/C(=C\CN=[N+]=[N-])CCCC(C)CCCC(C)CCCC(C)C` (stereo unspecified), in data set [1], the MIC result is “inactive”.

The molecule `CCOC(=O)CO/N=C/C=C(\C)CCCC(C)CCCC(C)CCCC(C)C` (stereo unspecified) came in with a minimum inhibitory concentration (MIC) in data set [2] of 500 µg/mL (≈ 1260 µM).

Regarding `C/C(=C\CBr)CCCC(C)CCCC(C)CCCC(C)C` (stereo unspecified), the MIC entry in [1] was “inactive”.

Consider `C/C(=C\COC/C=C(\C)CCCC(C)CCCC(C)CCCC(C)C)CCCC(C)CCCC(C)CCCC(C)C` (stereo unspecified), for which the MIC entry in [1] is “inactive”.

Regarding `CN[C@@H]1[C@H](O[C@H]2[C@H](O[C@H]3[C@H](O)[C@@H](O)[C@H](N=C(N)N)[C@@H](O)[C@@H]3N=C(N)N)O[C@@H](C)[C@]2(O)C=O)O[C@@H](CO)[C@H](O)[C@H]1O` [STREPTOMYCIN], in [2], 2 µg/mL (≈ 3.44 µM) was the least that counted as inhibitory (MIC).
